Square brackets hold non-standard residues; d marks the D form. Peptide text beside a SMILES is read from it. * marks the point of attachment. pNA = O=[N+]([O-])c1ccc(N*)cc1; pGlu = O=C1CC[C@@H](C(=O)O)N1
Key:
Assay in all cases: Kinetics of amidolytic activity on S-2444 (Lineweaver-Burk)
Type in all cases: biochemical
Settings in all cases: pH 8.8 and 37°C
[1] = molecular target: plasmin-activated RSV-LB6-scu-PA (3F11-scu-PA; recombinant human uPA from RSV-uPA transfected murine LB6 cells) (Homo sapiens, UniProt P00749)
Description: (§1) The fibrinolytic assay is carried out by the fibrin plate method (Astrup T., Mullertz S., The fibrin plate method for estimating fibrinolytic activity, Arch Biochem Biophys 1952, 40:346-351). Urokinase reference standard is used to calibrate each assay. Activity is measured in International Units (I.U.) relative to the International Reference Preparation as the primary standard. sc-uPA (cell produced single chain urokinase) fibrinolytic latent activity is determined after activation as follows: plasmin (10 mg) is coupled with CNBr-activated Sepharose (cross-linked agarose) (2.5 ml) using 0.5 M sodium carbonate buffer as the coupling buffer. A 1:10 suspension of plasmin-agarose (0.9 ml) in 0.15 M sodium chloride, 0.05 M sodium phosphate buffer pH 7.4 is mixed with sc-uPA samples (0.1 ml) and gently rotated for 1 h at 20°C. Plasmin-agarose is removed by centrifugation 2 min at 10000 x g and the supernatant tested by the fibrin plate assay. Protein concentrations were measured according to the method of Lowry (Lowry O., Rosebrough H., Parr A., Randall R., Protein measurement with the Folin phenol reagent, J. Biol. Chem. 1951, 193,265-275). Amidolytic assays are performed by measuring the rate of hydrolysis of the synthetic substrate pyro-Glu-Gly-Arg-pNA, S-2444 (Claeson G., Friberger P., Knos M., Eriksson E., Methods for determination of pre-kallikrein in plasma, glandular kallikrein and urokinase, Haemostasis 1978; 7:76-78). Immunoadsorbent-amidolytic assay (IAA) is carried out as described by Corti A., Nolli ML., Cassani G., Differential detection of single-chain and two-chain urokinase type plasminogen activator by a new immunoadsorbent amidolytic assay (IAA), Throm Haemostas 1986, 56:407-10. The assay combines the selectivity of immunoassays with the specificity of enzyme activity assays exploiting both the antigenic and enzymatic properties of the two proteins. tcu-PA and scu-PA are selectively immunoadsorbed on the wells of a microtiter plate coated with the monoclonal antibody 5B4 and tested for enzymatic activity before and after activation by plasmin treatment.
(§2) To determine the kinetic parameters of the amidolytic activity, plasmin-activated u-PA's (4.5 nM) are incubated at different concentrations (0.03 - 0.3 mM) of pyro-Glu-Gly-Arg-p-nitroanilide (S-2444) in 0.1 M Tris Cl (pH 8.8), 50 mM NaCl and 0.1% bovine serum albumin at 37°C. The initial rate of p-nitroaniline release is determined photometrically at 405 nm. The linear increase of absorbance with time for the various concentrations of S-2444 is reported in a Lineweaver-Burk plot from which Km and Vmax are calculated by extrapolation of the curves obtained using a linear regression program.

[2] = molecular target: plasmin-activated urinary scu-PA (human urine tcu-PA, urokinase) (Homo sapiens, UniProt P00749)
Description: as §1, §2

[3] = molecular target: plasmin-activated BPV-LB6-scu-PA (recombinant human uPA from BPV vector transfected murine LB6 cells) (Homo sapiens, UniProt P00749)
Description: as §1, §2

[4] = molecular target: plasmin-activated RSV-CHO-scu-PA (recombinant human uPA from RSV-uPA transfected CHO cells) (Homo sapiens, UniProt P00749)
Description: as §1, §2

[5] = molecular target: plasmin-activated RSV-A431-scu-PA (recombinant human uPA from RSV-uPA transfected A431 cells) (Homo sapiens, UniProt P00749)
Description: as §1, §2

[6] = molecular target: plasmin-activated A431 scu-PA (from untransformed human A431 cells) (Homo sapiens, UniProt P00749)
Description: as §1, §2

Work on `N=C(N)NCCC[C@H](NC(=O)CNC(=O)[C@@H]1CCC(=O)N1)C(=O)Nc1ccc([N+](=O)[O-])cc1` [S-2444, pyro-Glu-Gly-Arg-p-nitroanilide] ([pGlu]-Gly-Arg-pNA) yielded a Km [1] of 69 µM, a kcat [1] of 24 s⁻¹ and a Km [2] of 80 µM. It also gave a kcat [2] of 25 s⁻¹, a Km [3] of 78 µM and a kcat [3] of 26 s⁻¹. For the same molecule, the Km [4] was 76 µM, the kcat [4] was 26 s⁻¹ and the Km [5] was 76 µM. It also gave a kcat [5] of 23 s⁻¹, a Km [6] of 72 µM and a kcat [6] of 23 s⁻¹.

Source: patent publication EP0303028A1, “Method for preparing single chain urokinase” (GRUPPO LEPETIT S.p.A., priority 1987, dated 1989)
